Test results from the supplement of paper PMC10307832.

Key:
Experiment in all cases: relative viability (nuclei count vs DMSO), 5 days (fraction); higher = more cells survive
[1] = compound: O=S(=O)(c1ccccc1)N(CC(F)(F)F)c1ccc(C(O)(C(F)(F)F)C(F)(F)F)cc1 + CC1(C)CCC(c2ccc(Cl)cc2)=C(CN2CCN(c3ccc(C(=O)NS(=O)(=O)c4ccc(N[C@H](CCN5CCOCC5)CSc5ccccc5)c(S(=O)(=O)C(F)(F)F)c4)cc3)CC2)C1 [Navitoclax] (partner 0.5 µM)
Procedure, shortened: (§1)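 Each reported value is a median over duplicate plates. It expresses relative viability: treated-well nuclei count divided by vehicle-well nuclei count. Lung cancer cell lines in 1536-well plates were dosed by pin tool a day after seeding, alone with one drug or with a fixed anchor-drug dose plus five library-drug doses (not always all listed) in √10 steps, and nuclei were counted after 5 days.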

RO-3306 + Crizotinib = compound: C1=CC2=C(C=CC(=C2)C=C3C(=O)NC(=NCC4=CC=CS4)S3)N=C1 [RO-3306] + C[C@@H](Oc1cc(-c2cnn(C3CCNCC3)c2)cnc1N)c1c(Cl)ccc(F)c1Cl [Crizotinib] (partner 1 µM)
Procedure, shortened: as §1

RO-3306 + Alpelisib = compound: C1=CC2=C(C=CC(=C2)C=C3C(=O)NC(=NCC4=CC=CS4)S3)N=C1 [RO-3306] + Cc1nc(NC(=O)N2CCC[C@H]2C(N)=O)sc1-c1ccnc(C(C)(C)C(F)(F)F)c1 [Alpelisib] (partner 2 µM)
Procedure, shortened: as §1

RO-3306 + Vorinostat = compound: C1=CC2=C(C=CC(=C2)C=C3C(=O)NC(=NCC4=CC=CS4)S3)N=C1 [RO-3306] + O=C(CCCCCCC(=O)Nc1ccccc1)NO [Vorinostat] (partner 1 µM)
Procedure, shortened: as §1

201T
relative viability ([1]; first compound 0.8 µM): 1.18 | relative viability ([1]; first compound 2.53 µM): 1.18 | relative viability ([1]; first compound 8 µM): 1.22 | relative viability (RO-3306 + Crizotinib; first compound 0.01 µM): 1.07 | relative viability (RO-3306 + Crizotinib; first compound 0.03162 µM): 1.03 | relative viability (RO-3306 + Crizotinib; first compound 0.1 µM): 0.998 | relative viability (RO-3306 + Crizotinib; first compound 0.3162 µM): 0.992 | relative viability (RO-3306 + Crizotinib; first compound 1 µM): 1.02 | relative viability (RO-3306 + Alpelisib; first compound 0.01 µM): 1.03 | relative viability (RO-3306 + Alpelisib; first compound 0.03162 µM): 1.01 | relative viability (RO-3306 + Alpelisib; first compound 0.1 µM): 1.05 | relative viability (RO-3306 + Alpelisib; first compound 0.3162 µM): 0.973 | relative viability (RO-3306 + Alpelisib; first compound 1 µM): 1.04 | relative viability (RO-3306 + Vorinostat; first compound 0.01 µM): 1.03 | relative viability (RO-3306 + Vorinostat; first compound 0.03162 µM): 0.974 | relative viability (RO-3306 + Vorinostat; first compound 0.1 µM): 0.959 | relative viability (RO-3306 + Vorinostat; first compound 0.3162 µM): 1.03 | relative viability (RO-3306 + Vorinostat; first compound 1 µM): 1.02

A549
relative viability ([1]; first compound 0.8 µM): 1.34 | relative viability ([1]; first compound 2.53 µM): 1.12 | relative viability ([1]; first compound 8 µM): 0.97 | relative viability (RO-3306 + Crizotinib; first compound 0.01 µM): 0.872 | relative viability (RO-3306 + Crizotinib; first compound 0.03162 µM): 0.705 | relative viability (RO-3306 + Crizotinib; first compound 0.1 µM): 0.751 | relative viability (RO-3306 + Crizotinib; first compound 0.3162 µM): 0.687 | relative viability (RO-3306 + Crizotinib; first compound 1 µM): 0.706 | relative viability (RO-3306 + Alpelisib; first compound 0.01 µM): 0.744 | relative viability (RO-3306 + Alpelisib; first compound 0.1 µM): 0.72 | relative viability (RO-3306 + Alpelisib; first compound 0.3162 µM): 0.756 | relative viability (RO-3306 + Alpelisib; first compound 1 µM): 0.715

A-427
relative viability ([1]; first compound 0.8 µM): 1.01 | relative viability ([1]; first compound 2.53 µM): 0.886 | relative viability ([1]; first compound 8 µM): 1.01 | relative viability (RO-3306 + Crizotinib; first compound 0.01 µM): 1.02 | relative viability (RO-3306 + Crizotinib; first compound 0.03162 µM): 0.883 | relative viability (RO-3306 + Crizotinib; first compound 0.1 µM): 0.904 | relative viability (RO-3306 + Crizotinib; first compound 0.3162 µM): 0.955 | relative viability (RO-3306 + Crizotinib; first compound 1 µM): 0.845 | relative viability (RO-3306 + Alpelisib; first compound 0.01 µM): 1.13 | relative viability (RO-3306 + Alpelisib; first compound 0.03162 µM): 0.575 | relative viability (RO-3306 + Alpelisib; first compound 0.1 µM): 1 | relative viability (RO-3306 + Alpelisib; first compound 0.3162 µM): 1.06 | relative viability (RO-3306 + Alpelisib; first compound 1 µM): 1.02 | relative viability (RO-3306 + Vorinostat; first compound 0.01 µM): 0.843 | relative viability (RO-3306 + Vorinostat; first compound 0.03162 µM): 0.818 | relative viability (RO-3306 + Vorinostat; first compound 0.1 µM): 0.898 | relative viability (RO-3306 + Vorinostat; first compound 0.3162 µM): 0.911 | relative viability (RO-3306 + Vorinostat; first compound 1 µM): 0.865

ABC-1
relative viability (RO-3306 + Crizotinib; first compound 0.01 µM): 1.21 | relative viability (RO-3306 + Crizotinib; first compound 0.03162 µM): 0.85 | relative viability (RO-3306 + Crizotinib; first compound 0.1 µM): 1.12 | relative viability (RO-3306 + Crizotinib; first compound 0.3162 µM): 1.18 | relative viability (RO-3306 + Crizotinib; first compound 1 µM): 1.44 | relative viability (RO-3306 + Alpelisib; first compound 0.01 µM): 1.07 | relative viability (RO-3306 + Alpelisib; first compound 0.03162 µM): 1.07 | relative viability (RO-3306 + Alpelisib; first compound 0.1 µM): 1.22 | relative viability (RO-3306 + Alpelisib; first compound 0.3162 µM): 0.939 | relative viability (RO-3306 + Alpelisib; first compound 1 µM): 1.22 | relative viability (RO-3306 + Vorinostat; first compound 0.01 µM): 1.21 | relative viability (RO-3306 + Vorinostat; first compound 0.03162 µM): 1 | relative viability (RO-3306 + Vorinostat; first compound 0.1 µM): 1.03 | relative viability (RO-3306 + Vorinostat; first compound 0.3162 µM): 1.13 | relative viability (RO-3306 + Vorinostat; first compound 1 µM): 0.781

BEN
relative viability ([1]; first compound 0.8 µM): 0.0593 | relative viability ([1]; first compound 2.53 µM): 0.0841 | relative viability ([1]; first compound 8 µM): 0.0468 | relative viability (RO-3306 + Crizotinib; first compound 0.01 µM): 0.834 | relative viability (RO-3306 + Crizotinib; first compound 0.03162 µM): 0.768 | relative viability (RO-3306 + Crizotinib; first compound 0.1 µM): 0.86 | relative viability (RO-3306 + Crizotinib; first compound 0.3162 µM): 0.906 | relative viability (RO-3306 + Crizotinib; first compound 1 µM): 0.813 | relative viability (RO-3306 + Alpelisib; first compound 0.01 µM): 1.3 | relative viability (RO-3306 + Alpelisib; first compound 0.03162 µM): 0.738 | relative viability (RO-3306 + Alpelisib; first compound 0.1 µM): 0.926 | relative viability (RO-3306 + Alpelisib; first compound 0.3162 µM): 1.09 | relative viability (RO-3306 + Alpelisib; first compound 1 µM): 1.08 | relative viability (RO-3306 + Vorinostat; first compound 0.01 µM): 0.565 | relative viability (RO-3306 + Vorinostat; first compound 0.03162 µM): 0.543 | relative viability (RO-3306 + Vorinostat; first compound 0.1 µM): 0.562 | relative viability (RO-3306 + Vorinostat; first compound 0.3162 µM): 0.595 | relative viability (RO-3306 + Vorinostat; first compound 1 µM): 0.55

CAL-12T
relative viability ([1]; first compound 0.8 µM): 1.18 | relative viability ([1]; first compound 2.53 µM): 1.35 | relative viability ([1]; first compound 8 µM): 0.832 | relative viability (RO-3306 + Crizotinib; first compound 0.01 µM): 0.57 | relative viability (RO-3306 + Crizotinib; first compound 0.03162 µM): 0.49 | relative viability (RO-3306 + Crizotinib; first compound 0.1 µM): 0.531 | relative viability (RO-3306 + Crizotinib; first compound 0.3162 µM): 0.63 | relative viability (RO-3306 + Crizotinib; first compound 1 µM): 0.508 | relative viability (RO-3306 + Alpelisib; first compound 0.01 µM): 1.38 | relative viability (RO-3306 + Alpelisib; first compound 0.03162 µM): 1.26 | relative viability (RO-3306 + Alpelisib; first compound 0.1 µM): 1.17 | relative viability (RO-3306 + Alpelisib; first compound 0.3162 µM): 1.19 | relative viability (RO-3306 + Alpelisib; first compound 1 µM): 1.37 | relative viability (RO-3306 + Vorinostat; first compound 0.01 µM): 1.08 | relative viability (RO-3306 + Vorinostat; first compound 0.03162 µM): 0.66 | relative viability (RO-3306 + Vorinostat; first compound 0.1 µM): 0.647 | relative viability (RO-3306 + Vorinostat; first compound 0.3162 µM): 0.809 | relative viability (RO-3306 + Vorinostat; first compound 1 µM): 0.694

COR-L23
relative viability ([1]; first compound 0.8 µM): 1.14 | relative viability ([1]; first compound 2.53 µM): 1.03 | relative viability ([1]; first compound 8 µM): 0.913 | relative viability (RO-3306 + Crizotinib; first compound 0.01 µM): 0.45 | relative viability (RO-3306 + Crizotinib; first compound 0.1 µM): 0.748 | relative viability (RO-3306 + Crizotinib; first compound 0.3162 µM): 0.694 | relative viability (RO-3306 + Crizotinib; first compound 1 µM): 0.74 | relative viability (RO-3306 + Alpelisib; first compound 0.01 µM): 0.898 | relative viability (RO-3306 + Alpelisib; first compound 0.1 µM): 0.866 | relative viability (RO-3306 + Alpelisib; first compound 0.3162 µM): 0.631 | relative viability (RO-3306 + Alpelisib; first compound 1 µM): 0.75 | relative viability (RO-3306 + Vorinostat; first compound 0.01 µM): 0.51 | relative viability (RO-3306 + Vorinostat; first compound 0.03162 µM): 0.412 | relative viability (RO-3306 + Vorinostat; first compound 0.1 µM): 0.489 | relative viability (RO-3306 + Vorinostat; first compound 0.3162 µM): 0.394 | relative viability (RO-3306 + Vorinostat; first compound 1 µM): 0.344

COR-L 105
relative viability ([1]; first compound 0.8 µM): 0.691 | relative viability ([1]; first compound 2.53 µM): 0.668 | relative viability ([1]; first compound 8 µM): 0.823 | relative viability (RO-3306 + Crizotinib; first compound 0.01 µM): 0.757 | relative viability (RO-3306 + Crizotinib; first compound 0.03162 µM): 0.794 | relative viability (RO-3306 + Crizotinib; first compound 0.1 µM): 0.781 | relative viability (RO-3306 + Crizotinib; first compound 0.3162 µM): 0.768 | relative viability (RO-3306 + Crizotinib; first compound 1 µM): 0.673 | relative viability (RO-3306 + Alpelisib; first compound 0.01 µM): 1.36 | relative viability (RO-3306 + Alpelisib; first compound 0.03162 µM): 0.835 | relative viability (RO-3306 + Alpelisib; first compound 0.1 µM): 1.06 | relative viability (RO-3306 + Alpelisib; first compound 0.3162 µM): 1.09 | relative viability (RO-3306 + Alpelisib; first compound 1 µM): 0.998 | relative viability (RO-3306 + Vorinostat; first compound 0.01 µM): 0.779 | relative viability (RO-3306 + Vorinostat; first compound 0.03162 µM): 0.773 | relative viability (RO-3306 + Vorinostat; first compound 0.1 µM): 0.77 | relative viability (RO-3306 + Vorinostat; first compound 0.3162 µM): 0.759 | relative viability (RO-3306 + Vorinostat; first compound 1 µM): 0.751

Calu-6
relative viability ([1]; first compound 0.8 µM): 0.796 | relative viability ([1]; first compound 2.53 µM): 0.823 | relative viability ([1]; first compound 8 µM): 0.647 | relative viability (RO-3306 + Crizotinib; first compound 0.01 µM): 0.909 | relative viability (RO-3306 + Crizotinib; first compound 0.03162 µM): 0.774 | relative viability (RO-3306 + Crizotinib; first compound 0.1 µM): 0.802 | relative viability (RO-3306 + Crizotinib; first compound 0.3162 µM): 0.804 | relative viability (RO-3306 + Crizotinib; first compound 1 µM): 0.768 | relative viability (RO-3306 + Alpelisib; first compound 0.01 µM): 1.21 | relative viability (RO-3306 + Alpelisib; first compound 0.03162 µM): 0.91 | relative viability (RO-3306 + Alpelisib; first compound 0.1 µM): 1.04 | relative viability (RO-3306 + Alpelisib; first compound 0.3162 µM): 0.931 | relative viability (RO-3306 + Alpelisib; first compound 1 µM): 0.982

ChaGo-K-1
relative viability ([1]; first compound 0.8 µM): 0.978 | relative viability ([1]; first compound 2.53 µM): 1.02 | relative viability ([1]; first compound 8 µM): 1.59 | relative viability (RO-3306 + Crizotinib; first compound 0.01 µM): 1.2 | relative viability (RO-3306 + Crizotinib; first compound 0.03162 µM): 1.03 | relative viability (RO-3306 + Crizotinib; first compound 0.1 µM): 1.14 | relative viability (RO-3306 + Crizotinib; first compound 0.3162 µM): 0.858 | relative viability (RO-3306 + Crizotinib; first compound 1 µM): 0.818 | relative viability (RO-3306 + Vorinostat; first compound 0.01 µM): 0.808 | relative viability (RO-3306 + Vorinostat; first compound 0.03162 µM): 0.654 | relative viability (RO-3306 + Vorinostat; first compound 0.1 µM): 0.699 | relative viability (RO-3306 + Vorinostat; first compound 0.3162 µM): 0.782 | relative viability (RO-3306 + Vorinostat; first compound 1 µM): 0.557
